Source: patent EP0723577B1, “DETERGENT COMPOSITIONS CONTAINING SILVER ANTI-TARNISHING AGENTS” (UNILEVER N.V., priority 1993, dated 1995)

Assays:
[1] = Silver plates held in the compositions for 25 minutes, evaluated for tarnishing; settings: for Effective Silver Anti-Tarnishing: 4 wt.% epsilon-phthalimido peroxyhexanoic acid
Description: A comparison of anti-tarnishing performance of purine class compounds within the scope of the invention and azole compounds outside the invention was conducted. The selected compounds were incorporated in an amount of 1 wt.% in a machine dishwashing composition containing 4 wt.% epsilon-phthalimido peroxyhexanoic acid as the bleaching agent. The pH values of the compositions were adjusted by the addition of a 50% solution of sodium hydroxide or concentrated sulfuric acid, as necessary.
(§1) Copper plates and silver plates were held in each of the compositions for 25 minutes, removed, rinsed with deionized water and evaluated for tarnishing. […]
A comparison of anti-tarnishing performance of 1,3-N azole compounds within the scope of the invention and azole compounds outside the invention was conducted. The selected compounds were incorporated in an amount of 1 wt.% in a machine dishwashing composition containing 4 wt.% epsilon-phthalimido peroxyhexanoic acid as the bleaching agent. The pH values of the compositions were adjusted by the addition of a 50% solution of sodium hydroxide or concentrated sulfuric acid, as necessary.
as §1

[2] = pKa determination by titration of a 0.001M solution with 1N NaOH; format: physicochemical
Description: As used herein, the term "pKa" means a pH value at which 50% of the heterocyclic ring moieties of the compound (particularly the five-membered rings in the case of the purine class compounds) are in ionic form.
The pH of this solution was adjusted to 3.0 with H2SO4. The solution was then titrated with 1N NaOH to pH 11.0. A plot of mls. NaOH vs. pH for each sample was prepared. The pKa of the compound is that point where the maximum change in pH as a function of mls. NaOH is observed.

[3] = Tarnish-monitoring experiments in a dishwasher, monitors visually ranked 0 to 6 against the Example 1 reference scale; settings: general description, compositions containing the compound
Description: The wash program consisted of a pre-wash at 40°C, a mainwash at 55°C, two intermediate rinses, and a final rinse at 65°C.
The mainwash pH with these compositions was typically 8.7. Silver-plated spoons (2 per run) were the monitors used in the test. The spoons were supplied by Oneida Silversmiths, USA. The monitors were washed in a commercially available hand dishwash liquid and rinsed with deionized water and acetone before use. In the dishwasher the monitors were kept apart from each other in the cutlery basket. At the end of a single-run machine program, the monitors were visually analyzed for the presence of colours and the loss of gloss.
This ranking of spoons was used as a reference scale for all subsequent Examples.

[4] = Example 13: 1 wt.% compound, pH of composition 8.5
[5] = Example 13: 1 wt.% compound, pH of composition 11.0
[6] = Example 13, Tables 20 and 21, read-out: pKa of compounds
[7] = Example 5: 1 wt.% compound, pH of composition 8.5
[8] = Example 5: 1 wt.% compound, pH of composition 11.0
[9] = Example 5: 1 wt.% compound, pH of composition 8.6
[10] = Example 13: 1 wt.% compound, pH of composition 8.6

Question: For `c1nnn[nH]1` [1,2,3,5-Tetrazole], which “pH of compositions in which the compound is effective” value ([1]; Example 13) is on record?
Answer: Its value is “greater than 9.4”.

Question: And the “effectiveness as a silver anti-tarnishing agent, in words” value (shortened to “effectiveness”) ([1]; Example 13, pH of 8.5)?
Answer: Its value is “not effective”.

Question: What about the “effectiveness” value ([1]; Example 13, pH of 9.5 and greater) of the same molecule?
Answer: Its value is “effective”.

Question: What about the “Effective Silver Anti-Tarnishing” value [1, 4] of the same molecule?
Answer: The value was “No (A tarnish score of 3 or less was considered effective as a silver anti-tarnishing compound)”.

Question: And the “Effective Silver Anti-Tarnishing” value ([1]; Example 13: 1 wt.% compound, pH of composition 9.5)?
Answer: The value was “Yes (A tarnish score of 3 or less was considered effective as a silver anti-tarnishing compound)”.

Question: And the “Effective Silver Anti-Tarnishing” value ([1]; Example 13: 1 wt.% compound, pH of composition 10.5)?
Answer: The value was “Yes (A tarnish score of 3 or less was considered effective as a silver anti-tarnishing compound)”.

Question: What about the “Effective Silver Anti-Tarnishing” value [1, 5] of the same molecule?
Answer: The value was “Yes (A tarnish score of 3 or less was considered effective as a silver anti-tarnishing compound)”.

Question: And the pKa [2, 6]?
Answer: Its pKa is 8.4.

Question: With `c1ccc(-c2ncc[nH]2)cc1` [2-Phenylimidazole, reference compound] as the molecule, how does the “Effective Silver Anti-Tarnishing” value [1, 7] read?
Answer: The value was “No (A tarnish score of 3 or less was considered effective as a silver anti-tarnishing compound)”.

Question: What about the “Effective Silver Anti-Tarnishing” value [1, 8] of the same molecule?
Answer: Its value is “No (A tarnish score of 3 or less was considered effective as a silver anti-tarnishing compound)”.

Question: And the “prevention of silver tarnishing, in words” value ([1]; Example 13, pH 11.0)?
Answer: Its value is “did not prevent silver tarnishing”.

Question: What about the “Effective Silver Anti-Tarnishing” value [1, 4] of the same molecule?
Answer: Its value is “No (A tarnish score of 3 or less was considered effective as a silver anti-tarnishing compound)”.

Question: What about the “Effective Silver Anti-Tarnishing” value [1, 5] of the same molecule?
Answer: The value was “No (A tarnish score of 3 or less was considered effective as a silver anti-tarnishing compound)”.

Question: What about the pKa [2] of the same molecule?
Answer: The pKa was 8.8.

Question: Which “Effective Silver Anti-Tarnishing” value ([1]; Example 13: 1 wt.% compound, pH of composition 8.3) does the source give for `Nc1nc[nH]n1` [3-amino-1,2,4-triazole] here?
Answer: Its value is “Yes (A tarnish score of 3 or less was considered effective as a silver anti-tarnishing compound)”.

Question: What about the pKa [2] of the same molecule?
Answer: Its pKa is 7.3.

Question: Which “effectiveness” value ([1]; Example 13, pH of 8.8) does the source give for `Nc1nn[nH]n1` [4-amino-1,2,3,5-tetrazole] here?
Answer: The value was “not effective”.

Question: What about the “Effective Silver Anti-Tarnishing” value ([1]; Example 13: 1 wt.% compound, pH of composition 8.8) of the same molecule?
Answer: Its value is “No (A tarnish score of 3 or less was considered effective as a silver anti-tarnishing compound)”.

Question: What about the pKa [2] of the same molecule?
Answer: Its pKa is 8.1.

Question: With `O=[N+]([O-])c1ccc2cn[nH]c2c1` [6-Nitroindazole, reference compound] as the molecule, how does the “Effective Silver Anti-Tarnishing” value [1, 7] read?
Answer: The value was “No (A tarnish score of 3 or less was considered effective as a silver anti-tarnishing compound)”.

Question: What about the “Effective Silver Anti-Tarnishing” value [1, 8] of the same molecule?
Answer: The value was “No (A tarnish score of 3 or less was considered effective as a silver anti-tarnishing compound)”.

Question: And the “Effective Silver Anti-Tarnishing” value [1, 4]?
Answer: The value was “No (A tarnish score of 3 or less was considered effective as a silver anti-tarnishing compound)”.

Question: What about the “Effective Silver Anti-Tarnishing” value [1, 5] of the same molecule?
Answer: Its value is “No (A tarnish score of 3 or less was considered effective as a silver anti-tarnishing compound)”.

Question: And the pKa [2]?
Answer: Its pKa is 6.8.

Question: Which “prevention of silver tarnishing, in words” value ([1]; Example 5, pH 6.9) does the source give for `Nc1ncnc2nc[nH]c12` [Adenine] here?
Answer: Its value is “did not prevent tarnishing”.

Question: And the “prevention of silver tarnishing, in words” value ([1]; Example 5, pH 8.6)?
Answer: Its value is “prevented silver tarnishing”.

Question: And the “Effective Silver Anti-Tarnishing” value ([1]; Example 5: 1 wt.% compound, pH of composition 6.9)?
Answer: Its value is “No (A tarnish score of 3 or less was considered effective as a silver anti-tarnishing compound)”.

Question: And the “Effective Silver Anti-Tarnishing” value [1, 9]?
Answer: The value was “Yes (A tarnish score of 3 or less was considered effective as a silver anti-tarnishing compound)”.

Question: And the pKa [2]?
Answer: The pKa was 7.2.

Question: Which results are given for `Oc1ncnc2[nH]ncc12` [Allopurinol]?
Answer: Effective Silver Anti-Tarnishing [1, 9]: Yes (A tarnish score of 3 or less was considered effective as a silver anti-tarnishing compound); pKa [2]: 6.1

Question: For `N=C(N)NCCC[C@H](N)C(=O)O` [Arginine, reference compound], which “Effective Silver Anti-Tarnishing” value [1, 9] is on record?
Answer: Its value is “No (A tarnish score of 3 or less was considered effective as a silver anti-tarnishing compound)”.

Question: What about the “Effective Silver Anti-Tarnishing” value [1, 10] of the same molecule?
Answer: Its value is “No (A tarnish score of 3 or less was considered effective as a silver anti-tarnishing compound)”.

Question: What about the pKa [2] of the same molecule?
Answer: The pKa was 9.1.

Question: And the pKa of compounds [2]?
Answer: The pKa of compounds was 9.1.

Question: For `c1ccc2[nH]cnc2c1` [Benzimidazole], which “Effective Silver Anti-Tarnishing” value [1, 10] is on record?
Answer: The value was “Yes (A tarnish score of 3 or less was considered effective as a silver anti-tarnishing compound)”.

Question: And the pKa of compounds [2]?
Answer: Its pKa of compounds is 5.5.

Question: For `Nc1nc2nc[nH]c2c(=O)[nH]1` [Guanine], which “prevention of silver tarnishing, in words” value ([1]; Example 5, pH 7.0) is on record?
Answer: The value was “did not prevent tarnishing”.

Question: What about the “prevention of silver tarnishing, in words” value ([1]; Example 5, pH 8.6) of the same molecule?
Answer: The value was “prevented silver tarnishing”.

Question: What about the “Effective Silver Anti-Tarnishing” value ([1]; Example 5: 1 wt.% compound, pH of composition 7.0) of the same molecule?
Answer: The value was “No (A tarnish score of 3 or less was considered effective as a silver anti-tarnishing compound)”.

Question: And the “Effective Silver Anti-Tarnishing” value [1, 9]?
Answer: The value was “Yes (A tarnish score of 3 or less was considered effective as a silver anti-tarnishing compound)”.

Question: And the pKa [2]?
Answer: The pKa was 6.7.

Question: Which “Effective Silver Anti-Tarnishing” value [1, 10] does the source give for `N[C@@H](Cc1c[nH]cn1)C(=O)O` [Histidine] here?
Answer: Its value is “Yes (A tarnish score of 3 or less was considered effective as a silver anti-tarnishing compound)”.

Question: Which results are given for `O=c1[nH]cnc2nc[nH]c12` [Hypoxanthine]?
Answer: Effective Silver Anti-Tarnishing [1, 9]: Yes (A tarnish score of 3 or less was considered effective as a silver anti-tarnishing compound); pKa ([2]; pKa of compounds): 6

Question: Which “Effective Silver Anti-Tarnishing” value [1, 10] does the source give for `c1c[nH]cn1` [Imidazole] here?
Answer: Its value is “Yes (A tarnish score of 3 or less was considered effective as a silver anti-tarnishing compound)”.

Question: And the pKa [2, 6]?
Answer: Its pKa is 6.9.

Question: What does the source list for `c1cn[nH]c1` [Pyrazole, reference compound]?
Answer: Effective Silver Anti-Tarnishing [1, 9]: No (A tarnish score of 3 or less was considered effective as a silver anti-tarnishing compound); Effective Silver Anti-Tarnishing [1, 10]: No (A tarnish score of 3 or less was considered effective as a silver anti-tarnishing compound); prevention of heavy tarnishing of silver and silver-plated articles, in words [3]: substantially ineffective; pKa [2]: 11.5

Question: Which “Effective Silver Anti-Tarnishing” value [1, 9] does the source give for `c1cc[nH]c1` [Pyrrole, reference compound] here?
Answer: Its value is “No (A tarnish score of 3 or less was considered effective as a silver anti-tarnishing compound)”.

Question: And the “Effective Silver Anti-Tarnishing” value [1, 10]?
Answer: Its value is “No (A tarnish score of 3 or less was considered effective as a silver anti-tarnishing compound)”.

Question: And the “prevention of heavy tarnishing of silver and silver-plated articles, in words” value (shortened to “prevention of heavy tarnishing … in words”) [3]?
Answer: Its value is “substantially ineffective”.

Question: Which “Effective Silver Anti-Tarnishing” value [1, 9] does the source give for `O=c1[nH]c(=O)c2[nH]c(=O)[nH]c2[nH]1` [Uric Acid] here?
Answer: Its value is “Yes (A tarnish score of 3 or less was considered effective as a silver anti-tarnishing compound)”.

Question: What about the pKa [2] of the same molecule?
Answer: Its pKa is 4.6.

Question: What does the source list for `O=c1[nH]c(=O)c2[nH]cnc2[nH]1` [Xanthine]?
Answer: Effective Silver Anti-Tarnishing [1, 9]: Yes (A tarnish score of 3 or less was considered effective as a silver anti-tarnishing compound); pKa [2]: 7

Question: For `c1ccc2[nH]ncc2c1` [indazole, reference compound], which “prevention of heavy tarnishing … in words” value [3] is on record?
Answer: Its value is “substantially ineffective”.

Question: Which “prevention of heavy tarnishing … in words” value [3] does the source give for `c1cncnc1` [pyrimidine, reference compound] here?
Answer: Its value is “substantially ineffective”.
